According to patent publication US20250326733A1, “A NEW ROUTE FOR SY[…] CHIRAL CANNABINOIDS FROM COUMARINS” (University of Florida Research Foundation, Inc., priority 2021, published 2025):
“Also recorded” adds a separate entry of the source.

Legend:
hCB2R [1] = target: T1, hCB2R (Homo sapiens, UniProt P34972); test: Stimulation of [35S]GTPγS binding (native G protein activation); assay type: biochemical
hCB2R [2] = target: T1, hCB2R; test: Binding affinity at human cannabinoid receptor 2; details: for CB1/CB2: ratio of Ki hCB1R / hCB2R
hCB1R [3] = target: T2, hCB1R (Homo sapiens, UniProt P21554); test: Functional activity (agonism), TRUPATH assay of Gαiβ3γ9 protein activation; assay type: cell-based; details: for Emax: mean ± SEM, n >= 3, NA = no observable agonism at concentrations up to 31.6 μM
hCB2R [4] = target: T1, hCB2R; test: as above; assay type: cell-based; details: for Emax: mean ± SEM, n >= 3
hCB1R [5] = target: T2, hCB1R; test: Binding affinity at human cannabinoid receptor 1

T1 sequence (P34972 whole entry): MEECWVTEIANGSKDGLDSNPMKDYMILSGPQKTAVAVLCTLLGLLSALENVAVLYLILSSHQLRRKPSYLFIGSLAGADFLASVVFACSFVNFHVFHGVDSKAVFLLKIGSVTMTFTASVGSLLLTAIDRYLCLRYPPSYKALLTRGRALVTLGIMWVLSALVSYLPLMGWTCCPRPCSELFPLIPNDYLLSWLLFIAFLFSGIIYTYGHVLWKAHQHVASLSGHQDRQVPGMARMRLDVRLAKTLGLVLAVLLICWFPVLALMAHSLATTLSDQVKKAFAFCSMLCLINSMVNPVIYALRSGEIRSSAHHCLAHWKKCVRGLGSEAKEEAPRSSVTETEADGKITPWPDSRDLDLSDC
T2 sequence (P21554 whole entry): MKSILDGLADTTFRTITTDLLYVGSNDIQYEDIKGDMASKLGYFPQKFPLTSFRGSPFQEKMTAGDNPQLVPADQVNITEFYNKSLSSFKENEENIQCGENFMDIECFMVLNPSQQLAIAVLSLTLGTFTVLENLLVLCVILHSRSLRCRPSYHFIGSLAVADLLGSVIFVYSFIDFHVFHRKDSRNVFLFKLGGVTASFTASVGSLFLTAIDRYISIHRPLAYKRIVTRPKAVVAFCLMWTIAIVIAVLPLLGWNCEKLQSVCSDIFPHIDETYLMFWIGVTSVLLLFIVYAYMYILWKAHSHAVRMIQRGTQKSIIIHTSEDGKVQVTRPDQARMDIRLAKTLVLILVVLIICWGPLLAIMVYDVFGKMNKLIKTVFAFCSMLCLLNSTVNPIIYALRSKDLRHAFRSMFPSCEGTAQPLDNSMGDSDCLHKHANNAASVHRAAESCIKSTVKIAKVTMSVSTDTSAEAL

SMILES	Ki (hCB2R [2]) [µM]	CB1/CB2 (hCB2R [2])	EC50 (hCB1R [3]) [µM]	Emax (hCB1R [3]; hCB1R)	EC50 (hCB2R [4]) [µM]	Emax (hCB2R [4]; hCB2R)	Ki (hCB1R [5]; Ki (nM), hCB1R) [nM]	also measured
CCCCCCC(C)(C)c1cc(O)c2c(c1)OC(C)(C)c1ccc(C)c(CO)c1-2 [axCBN-3]	0.000933	0.7	0.0263	0.0807 ± 0.0141	0.00347	0.120 ± 0.0296	0.661	potency to stimulate [35S]GTPγS binding, hCB2R versus hCB1R (hCB2R [1]; greater at hCB2R than at hCB1R): 2 fold; efficacy in [35S]GTPγS binding (in words) (hCB2R [1]; relative to CBN): increased efficacy over CBN; affinity, fold higher than CBN (hCB2R [2]; hCB2R): ~134 fold; affinity (in words) (hCB2R [2]; hCB2R / CB2 receptor): sub-nanomolar; also recorded: picomolar; affinity, fold higher than CBN (hCB1R [5]; hCB1R): approximately 360 fold; affinity (in words) (hCB1R [5]; hCB1R / CB1 receptor): sub-nanomolar; also recorded: picomolar; affinity, fold higher than CBN-DMH reported by Rhee, et al. (hCB1R [5]; hCB1R and hCB2R, comparator value from literature): 5-10 fold; pKiLo (low affinity site) (hCB1R [5]; hCB1R, two site binding model, FIG. 5): 7.3; Ki (hCB1R [5]; pKiHi (high affinity site), hCB1R, two site binding model, FIG. 5): 0.398 nM
C=C(C)[C@@H]1CCC(C)=C[C@H]1c1c(O)cc(CCCCC)cc1O [CBD, cannabidiol, reference compound]								agonism / efficacy (in words) (hCB1R [3]; hCB1R): no efficacy; agonism / efficacy (in words) (hCB2R [4]; hCB2R): no efficacy
CCCCCc1cc(O)c2c(c1)OC(C)(C)c1ccc(C)cc1-2 [CBN, cannabinol, reference compound]	0.138	1.7					240	Ki (hCB1R [5]; pKi, hCB1R, one site, FIG. 5): 631 nM
CCCCCCC(C)(C)c1cc(OC(C)=O)c2c(c1)OC(C)(C)c1ccc(C)c(COC(C)=O)c1-2 [axCBN-4]	0.195	6.2	7.08	0.175 ± 0.0832	0.178	0.120 ± 0.0294	1200	agonist activity (in words) (hCB2R [1]; hCB2R): maintained agonist activity; selectivity for hCB2R over hCB1R (hCB2R [2]): 6.2 fold
